# Tested on: IFNα-induced pSTAT5 (pY694) in CD3 positive cells of human whole blood
# Experiment: IFNα-Induced STAT Phosphorylation in Human Whole Blood
# Assay type: cell-based
# Conditions: Homo sapiens, 1 h compound incubation, 1000 U/mL recombinant human IFNα A/D for 15 min, pSTAT5 in CD3 positive population, read-out: Human WB IFNα-Induced Stat Phosph. (IC50)
# How it was run: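 Read-out is median fluorescence intensity of pSTAT5 (pY694) in the CD3-positive gate, by flow cytometry after fix/lyse and permeabilization. Before that, whole human blood anticoagulated with EDTA or ACD-A received compound for an hour and 1000 U/mL IFNα A/D for 15 min.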
row,SMILES,IC50
1,COc1c(Nc2cc(NC(=O)C3CC3)nnc2C(N)=O)cccc1-c1noc(CN2CCCS2(=O)=O)n1 [Example 68],23 nM
2,[2H]C([2H])([2H])NC(=O)c1nnc(NC(=O)C2CC2)cc1Nc1cccc(-c2ncc(C(=O)NC(C)C)s2)c1OC [Example 303],100 nM
3,[2H]C([2H])([2H])NC(=O)c1nnc(Nc2ccc(C)nn2)cc1Nc1cccc(-c2ncc(CO)s2)c1OC [Example 393],180 nM
4,[2H]C([2H])([2H])NC(=O)c1nnc(NC(=O)C2CC2)cc1Nc1cccc(-c2ncc(C(=O)N[C@H]3CN4CCC3CC4)s2)c1OC [Example 327],150 nM
5,[2H]C([2H])([2H])NC(=O)c1nnc(NC(=O)C2CC2)cc1Nc1cccc(-c2noc(CC(=O)N3CCOCC3)n2)c1OC [Example 23],60 nM
6,[2H]C([2H])([2H])NC(=O)c1nnc(NC(=O)C2CC2)cc1Nc1cccc(-c2ncc(C(=O)N3CCC(CCN4CCCC4)CC3)s2)c1OC [Example 318],80 nM
7,[2H]C([2H])([2H])NC(=O)c1nnc(NC(=O)C2CC2)cc1Nc1cccc(-c2ncc(C(=O)NCCC3CCCN3C)s2)c1OC (stereo not shown) [Example 299],14 nM
8,[2H]C([2H])([2H])NC(=O)c1cnc(NC(=O)C2CC2)cc1Nc1cc(F)cc(-c2cc(C(=O)N(C)C)n(C)n2)c1OC [Example 456],60 nM
9,[2H]C([2H])([2H])NC(=O)c1nnc(NC(=O)C2CC2)cc1Nc1cccc(-c2nc([C@@H](C)NC(=O)CC)no2)c1OC [Example 196],1180 nM
10,[2H]C([2H])([2H])NC(=O)c1nnc(NC(=O)C2CC2)cc1Nc1cccc(-c2nc(C3(NC(=O)OC(C)(C)C)CC3)no2)c1OC [Example 150],> 10000 nM
11,[2H]C([2H])([2H])NC(=O)c1nnc(NC(=O)C2CC2)cc1Nc1cccc(-c2ncc(C(=O)N3CCN(C(C)C)CC3)s2)c1OC [Example 295],60 nM
12,COc1c(Nc2cc(NC(=O)C3CC3)nnc2C(N)=O)cccc1-c1ncc(C(=O)N2CCCC2)s1 [Example 407],160 nM
13,[2H]C([2H])([2H])NC(=O)c1cnc(NC(=O)C2CC2)cc1Nc1cccc(-c2cnn(CCNC(=O)COC)n2)c1OC [Example 441],290 nM
14,[2H]C([2H])([2H])NC(=O)c1nnc(NC(=O)C2CC2)cc1Nc1cccc(-c2cnn(CCNC(=O)C3(C#N)CC3)n2)c1OC [Example 437],2410 nM
15,[2H]C([2H])([2H])NC(=O)c1nnc(NC(=O)C2CC2)cc1Nc1cccc(-c2ncc(C(=O)NCCN3CCCC3)s2)c1OC [Example 301],30 nM
16,[2H]C([2H])([2H])NC(=O)c1cnc(NC(=O)C2CC2)cc1Nc1cccc(-c2noc(COC)n2)c1OC [Example 93],50 nM
17,[2H]C([2H])([2H])NC(=O)c1nnc(NC(=O)C2CC2)cc1Nc1cccc(-c2noc(COC)n2)c1OC [Example 72],80 nM
18,[2H]C([2H])([2H])NC(=O)c1nnc(NC(=O)C2CC2)cc1Nc1cccc(-c2noc(CNC(=O)OC)n2)c1OC [Example 30],1380 nM
19,[2H]C([2H])([2H])NC(=O)c1nnc(NC(=O)C2CC2)cc1Nc1cccc(-c2cc(C(=O)N3CCN(S(C)(=O)=O)CC3)n(C)n2)c1OC [Example 502],150 nM
20,[2H]C([2H])([2H])NC(=O)c1nnc(NC(=O)C2CC2)cc1Nc1cccc(-c2nc(C)c(C(=O)N3CCC(N4CCN(CCO)CC4)CC3)s2)c1OC [Example 359],340 nM

row,SMILES,IC50
1,[2H]C([2H])([2H])NC(=O)c1nnc(NC(=O)C2CC2)cc1Nc1cccc(-c2noc(C(C)(C)C(=O)N3CCOCC3)n2)c1OC [Example 27],2010 nM
2,[2H]C([2H])([2H])NC(=O)c1nnc(NC(=O)C2CC2)cc1Nc1cc(F)cc(-c2cc(C(=O)N3CCCN(C)CC3)n(C)n2)c1OC [Example 517],350 nM
3,[2H]C([2H])([2H])NC(=O)c1nnc(NC(=O)C2CC2)cc1Nc1cccc(-c2ncc(NC(=O)OC(C)(C)C)s2)c1OC [Example 281],> 10000 nM
4,[2H]C([2H])([2H])NC(=O)c1nnc(NC(=O)C2CC2)cc1Nc1cccc(-c2nc(CNC(=O)CNC)no2)c1OC [Example 154],1110 nM
5,[2H]C([2H])([2H])NC(=O)c1nnc(NC(=O)C2CC2)cc1Nc1cccc(-c2cc(C(=O)N3CCNCC3)n(C)n2)c1OC [Example 492],150 nM
6,[2H]C([2H])([2H])NC(=O)c1cnc(Nc2ccc(OC)nn2)cc1Nc1cccc(-c2csc(C(=O)NCCOC)n2)c1OC [Example 567],700 nM
7,[2H]C([2H])([2H])NC(=O)c1nnc(NC(=O)C2CC2)cc1Nc1cccc(-c2ncc(C(=O)NC3CCC(N(C)C)CC3)s2)c1OC (stereo not shown) [Example 307],30 nM
8,[2H]C([2H])([2H])NC(=O)c1nnc(Nc2ccc(OC)nn2)cc1Nc1cccc(-c2nc(C(=O)N(C)C)cs2)c1OC [Example 379],560 nM
9,[2H]C([2H])([2H])NC(=O)c1nnc(NC(=O)C2CC2)cc1Nc1cccc(-c2ncc(C(=O)NCCCN3CCCC3)s2)c1OC [Example 340],100 nM
10,COc1c(Nc2cc(NC(=O)C3CC3)nnc2C(N)=O)cccc1-c1noc(C(=O)NCCC2CCCN2C)n1 (stereo not shown) [Example 37],18 nM
11,[2H]C([2H])([2H])NC(=O)c1nnc(Nc2ccc(C)nn2)cc1Nc1cccc(-c2nc(CN3CCOCC3)no2)c1OC [Example 237],70 nM
12,[2H]C([2H])([2H])NC(=O)c1nnc(NC(=O)C2CC2)cc1Nc1cccc(-c2nc(C)c(C(=O)NCC3CCN(C)C3)s2)c1OC (stereo not shown) [Example 368],350 nM
13,[2H]C([2H])([2H])NC(=O)c1nnc(NC(=O)C2CC2)cc1Nc1cccc(-c2nc(C)c(C(=O)N3CCN(C(C)C)CC3)s2)c1OC [Example 369],50 nM
14,[2H]C([2H])([2H])NC(=O)c1nnc(NC(=O)C2CC2)cc1Nc1cccc(-c2noc(CN3CCN(S(C)(=O)=O)CC3)n2)c1OC [Example 15],30 nM
15,[2H]C([2H])([2H])NC(=O)c1cnc(NC(=O)C2CC2)cc1Nc1cccc(-c2nc(CN3C[C@@H](C)O[C@@H](C)C3)no2)c1OC [Example 210],220 nM
16,[2H]C([2H])([2H])NC(=O)c1nnc(NC(=O)C2CC2)cc1Nc1cccc(-c2cc(C(=O)NC(CO)CO)n(C)n2)c1OC [Example 523],1680 nM
17,[2H]C([2H])([2H])NC(=O)c1nnc(NC(=O)C2CC2)cc1Nc1cccc(-c2ncc(C(=O)N3CCNC(=O)C3)s2)c1OC [Example 312],70 nM
18,[2H]C([2H])([2H])NC(=O)c1cnc(NC(=O)C2CC2)cc1Nc1cccc(-c2cc(C(=O)N(C)C)n(C)n2)c1OC [Example 486],60 nM
19,[2H]C([2H])([2H])NC(=O)c1nnc(NC(=O)C2CC2)cc1Nc1cccc(-c2noc(C(CCC)C(=O)NCCOC)n2)c1OC (stereo not shown) [Example 43],170 nM
20,[2H]C([2H])([2H])NC(=O)c1nnc(NC(=O)C2CC2)cc1Nc1cccc(-c2nc([C@@H](C)N)no2)c1OC [Example 191],410 nM

row,SMILES,IC50
1,[2H]C([2H])([2H])NC(=O)c1nnc(NC(=O)C2CC2)cc1Nc1cccc(-c2nc(C)c(C(=O)N3CCC(N(C)C)CC3)s2)c1OC [Example 354],80 nM
2,[2H]C([2H])([2H])NC(=O)c1nnc(NC(=O)C2CC2)cc1Nc1cccc(-c2nc([C@@H](NC(C)=O)[C@@H](C)O)no2)c1OC [Example 187],1130 nM
3,COc1c(Nc2cc(NC(=O)C3CC3)nnc2C(N)=O)cccc1-c1ncc(C(=O)N(C)C)o1 [Example 413],170 nM
4,[2H]C([2H])([2H])NC(=O)c1nnc(NC(=O)C2CC2)cc1Nc1cc(F)cc(-c2cc(C(=O)N(C)CC)n(C)n2)c1OC [Example 505],180 nM
5,[2H]C([2H])([2H])NC(=O)c1nnc(NC(=O)C2CC2)cc1Nc1cccc(-c2ncc(C(=O)NCCN3CCCC(F)C3)s2)c1OC (stereo not shown) [Example 347],13 nM
6,[2H]C([2H])([2H])NC(=O)c1nnc(NC(=O)C2CC2)cc1Nc1cccc(-c2noc(CN(C)S(C)(=O)=O)n2)c1OC [Example 65],16 nM
7,[2H]C([2H])([2H])NC(=O)c1nnc(NC(=O)C2CC2)cc1Nc1cc(F)cc(-c2cc(C(=O)N3CCC[C@H]3CO)n(C)n2)c1OC [Example 507],110 nM
8,[2H]C([2H])([2H])NC(=O)c1nnc(NC(=O)C2CC2)cc1Nc1cccc(-c2nc([C@@H](NC(=O)CC)[C@@H](C)O)no2)c1OC [Example 190],2360 nM
9,[2H]C([2H])([2H])NC(=O)c1nnc(NC(=O)C2CC2)cc1Nc1cccc(-c2nc(CC=C)no2)c1OC [Example 229],> 10000 nM
10,[2H]C([2H])([2H])NC(=O)c1nnc(NC(=O)C2CC2)cc1Nc1cccc(-c2cc(C(=O)N3CCC(CCN4CCCC4)CC3)n(C)n2)c1OC [Example 541],1390 nM
11,[2H]C([2H])([2H])NC(=O)c1nnc(NC(=O)C2CC2)cc1Nc1cccc(-c2ccn(CCNC(=O)CO)n2)c1OC [Example 467],200 nM
12,[2H]C([2H])([2H])NC(=O)c1nnc(NC(=O)C2CC2)cc1Nc1cccc(-c2nc(C)c(C(=O)N3CCS(=O)(=O)CC3)s2)c1OC [Example 372],150 nM
13,[2H]C([2H])([2H])NC(=O)c1nnc(NC(=O)C2CC2)cc1Nc1cccc(-c2noc(CN3CCOCC3)n2)c1OC [Example 7],24 nM
14,[2H]C([2H])([2H])NC(=O)c1nnc(NC(=O)C2CC2)cc1Nc1cccc(-c2ncc(C(=O)N3CCN(S(=O)(=O)CC)CC3)s2)c1OC [Example 242],21 nM
15,[2H]C([2H])([2H])NC(=O)c1nnc(NC(=O)C2CC2)cc1Nc1cccc(-c2noc(C(=O)N3CCOCC3)n2)c1OC [Example 16],560 nM
16,[2H]C([2H])([2H])NC(=O)c1nnc(NC(=O)C2CC2)cc1Nc1cccc(-c2ncc(C(=O)N3CCC(N4CCCCC4)CC3)s2)c1OC [Example 351],60 nM
17,[2H]C([2H])([2H])NC(=O)c1nnc(NC(=O)C2CC2)cc1Nc1cccc(-c2cc(C(=O)N(C)C)n(C)n2)c1OC [Example 483],60 nM
18,[2H]C([2H])([2H])NC(=O)c1nnc(NC(=O)C2CC2)cc1Nc1cccc(-c2nc(CNC(=O)COC)no2)c1OC [Example 152],1310 nM

# From patent US12240840B2, “Amide-substituted heterocyclic compounds for the treatment of conditions related to the modulation of IL-12, IL-23 and/or IFN-alpha” (BRISTOL-MYERS SQUIBB COMPANY, priority 2018, dated 2025)
